This is an account of results in patent EP1046400B1, “Use of an Equine herpes virus type-4 thymidine kinase and a nucleoside analog selected from ganciclovir and acyclovir for the killing of human proliferative cells” (Université Pierre et Marie Curie (Paris VI), priority 1999, dated 2000).

Each structure is given as a SMILES string.

Data set [1] has as its system HSV1-TK expressing tk(-) 3T3 cells (bulk). Briefly: Cytotoxicity assay, bulk transfected tk(-) 3T3 cells. To be noted: for IC50: Mus musculus, NIH3T3, 168 h; for Selectivity Index: IC50 ratio of parental to HSV1-TK transfected cells (bulk). The class given is cell-based, murine. As for the experimental part:
(§1) Cells were transfected by the various plasmids using a calcium phosphate precipitation kit (GibcoBRL). After 48 h of phenotypic expression, cells were grown in selective medium with zeocin (Cayla, Toulouse, France): 25 µg/ml (3T3 cells), 50 µg/ml (143 B cells) or 100 µg/ml (PANC-O2 and HCT 116 cells).
(§2) Cells were seeded at 2.5x10^3 per wells in 24-wells plates. 24 h later they were grown in drug-containing medium for 7 days. Drug concentrations ranging from 0.001 nM to 100 µM were tested in triplicate. The medium was changed with fresh DMEM every 2 days. On day 6, 1.5 µCi of [methyl-^3H]thymidine (Amersham, UK) was added per well. After washes with phosphate-buffered saline (PBS pH 7.3), incorporated radioactivity was determined with a Micro-Beta Plus counter (EG&G Instruments and Wallac, Turku, Finland).
(§3) Drug toxicity was assessed by measuring inhibition of cell proliferation. Cells were grown in drug-containing medium for 7 days. [methyl-^3H]-thymidine was added at day 6 and incorporated radioactivity was measured.

Data set [2] deals with EBV-TK expressing tk(-) 3T3 cells (bulk). The description is as above. The class given is cell-based, murine. To be noted: for IC50: Mus musculus, NIH3T3, 168 h; for Selectivity Index: IC50 ratio of parental to EBV-TK transfected cells (bulk). As for the experimental part:
as §1, §2, §3

Data set [3] has as its system murine tk(-) 3T3 HSV1-TK expressing clones. Briefly: Cytotoxicity assay, TK expressing clones. To be noted: for IC50: Mus musculus, Table 2, HSV1-TK clones, mean of 3 experiments; for Selectivity Index: IC50 ratio of parental to HSV1-TK clones. In kind it is cell-based. As for the experimental part: as §2
(§4) Drug sensitivity of TK expressing clones were tested as described in Table 1.

The test system of data set [4] is NIH-3T3. Nature of the data set: Cytotoxicity assay (inhibition of [methyl-3H]thymidine incorporation), parental cells. In kind it is cell-based, murine. To be noted: Mus musculus, parental NIH-3T3. As for the experimental part:
as §2, §3
Background: Incorporation of labelled thymidine or its analogues reports DNA synthesis.

In data set [5] the test system is human tk(-) 143B cells transfected with HSV1- or EHV4-TK. Briefly: Cytotoxic activity on human cell bulks, EHV4-TK compared with HSV1-TK (Figure 3). In kind it is cell-based. The note with it: human tk(-) 143B cell bulks. As for the experimental part: Toxicity is presented as mean of IC50 values ± SD. The means, determined on 3 independent experiments, are indicated on the top of each histogram.
as §2
Human tk(-) osteosarcoma 143B cell bulks expressing HSV1- or EHV4-TK were thus generated. We first analyzed the herpesvirus-TK protein expression levels for each cell bulks by […] using polyclonal antibodies against Sh protein (Figure 2-B). There was no detectable band corresponding to fused protein in tk(-) 143B cell extracts.

Data set [6] relates to murine tk(-) 3T3 EHV4-TK expressing clones. Briefly: Cytotoxicity assay, TK expressing clones. The class given is cell-based. The note with it: for Selectivity Index: IC50 ratio of parental to EHV4-TK clones; for IC50: Mus musculus. As for the experimental part:
as §2, §4

Data set [7] has as its system EHV4-TK expressing tk(-) 3T3 cells (bulk). Briefly: Cytotoxicity assay, bulk transfected tk(-) 3T3 cells. In kind it is cell-based, murine. The note with it: for Selectivity Index: IC50 ratio of parental to EHV4-TK transfected cells (bulk); for IC50: Mus musculus, NIH3T3, 168 h. As for the experimental part:
(§5) Cells were transfected by the various plasmids using a calcium phosphate precipitation kit (GibcoBRL).
as §2, §3

Data set [8] concerns VZV-TK expressing tk(-) 3T3 cells (bulk). The description is as above. The class given is cell-based, murine. The note with it: for Selectivity Index: IC50 ratio of parental to VZV-TK transfected cells (bulk); for IC50: Mus musculus, NIH3T3, 168 h. As for the experimental part: as §5, §2, §3
In data set [9] the test system is HSV1-TK expressing HCT116 cells. Briefly: Cytotoxicity assay, colonic carcinoma cells. In kind it is cell-based, human. As for the experimental part: as §2
The subject of data set [10] is EHV4-TK expressing HCT116 cells. Nature of the data set: Cytotoxicity assay, colonic carcinoma cells. In kind it is cell-based, human. As for the experimental part:
as §2

The test system of data set [11] is HCT116 cells. Nature of the data set: Cytotoxicity assay, colonic carcinoma cells, parental. In kind it is cell-based. The note with it: Homo sapiens, HCT-116, mean. As for the experimental part:
as §2

The subject of data set [12] is tk(-) 3T3 cells. Briefly: GCV toxicity, viability assay (Figure 5-B), non-transfected cells. In kind it is cell-based, murine. The note with it: Mus musculus, NIH3T3; non-transfected tk(-) 3T3; % viable cells. As for the experimental part:
(§6) (A) E-GFP expression in tk(-) 3T3 transfected and non-transfected cells. EHV4-TK gene fused with E-GFP gene (Figure 1-B) was transfected in tk(-) 3T3 cells, and E-GFP positive cells were detected by FACS analysis. Expression of E-GFP was determined a week after transfection (1) and after 2 months of culture in HAT medium (2). (B) GCV toxicity in transfected and non-transfected cells. Results were expressed as % of viable cells compared to cells grown without GCV.
(§7) Parental and viral-TK expressing cells were plated at 5x10^3 per wells in 6-wells dishes. After 24 h, drugs was added to the medium at various concentrations ranging from 0.01 to 100 µM. Medium containing drugs was changed every 2 days. After 7 days of culture, cell viability was assayed by counting viable cells by trypan blue exclusion after 7 days of culture with GCV.
(§8) To facilitate the transgene detection in transfected cells or tissues, the E-GFP gene was fused in frame at the 3' end of the EHV4-TK gene and cloned into an expression vector (Figure 1-B). This construction was then transfected into tk(-) 3T3 cells, followed by FACS analysis of E-GFP positive cells. A cell bulk containing 95% of E-GFP expressing cells was obtained. […] Expression of the EHV4-TK/E-GFP fusion protein efficiently sensitized these cells to GCV for which the IC50 was 0.6 µM, compared to 30 µM for tk(-) 3T3 cells (Figure 5-B).

For data set [13], the system named is tk(-) 3T3 cells expressing EHV4-TK/E-GFP fusion protein. Briefly: GCV toxicity, viability assay (Figure 5-B). The class given is cell-based, murine. The note with it: Mus musculus, NIH3T3. As for the experimental part:
as §6, §7, §8

In data set [14] the test system is EHV4-TK expressing PANC-O2 cell bulk. Nature of the data set: Cytotoxicity assay, pancreatic tumor cell bulk. The class given is cell-based, murine. As for the experimental part:
as §2

Data set [15] concerns HSV1-TK expressing PANC-O2 cell bulk. Nature of the data set: Cytotoxicity assay, pancreatic tumor cell bulk. The class given is cell-based, murine. The note with it: Mus musculus, means of two independent experiments. As for the experimental part:
as §2

The conditions of data set [16]: 10 mg/kg twice a day, humans (refs 34, 35); cited from earlier work.
Setting [17] is: NIH3T3, 168 h, Table 1, 7 days drug, mean of 2 experiments.
[18] abbreviates: NIH3T3, Table 2, mean of 3 experiments.

Usually IC50 stands for the point on the concentration scale where inhibition reaches its midpoint. For `Nc1nc2c(ncn2COCCO)c(=O)[nH]1` [ACV, 9-(2-hydroxyethoxymethyl)guanine], the IC50 came out at 8700 nM in data set [1]; 43300 nM in data set [2]; 15000 nM in data set [3]; 165000 nM in data set [4] (setting [17]); 53300 nM in [4] (setting [18]).
Take `O=c1[nH]c(=O)n([C@H]2C[C@H](O)[C@@H](CO)O2)cc1/C=C/Br` [BVDU, (E)-5-(2-bromovinyl)-2'-deoxyuridine]: the “Selectivity Index” value came out at 5500 in data set [1]; 1375 in data set [2]; 3331 in [3]; 1237 in data set [6]; 2750 in [7]; 2750 in [8]. For the same compound, the IC50 in data set [1] was determined as 15 nM; in data set [2] it was 40 nM; in data set [3], 13 nM; in data set [6], 35 nM; in [7], 20 nM; in data set [8], 16 nM. Besides, the IC50 in data set [4] (setting [17]) was determined as 55000 nM; in data set [4] (setting [18]), 43300 nM. In [5], the “toxicity / sensitivity in EHV4-TK compared with HSV1-TK expressing cells” value was “greater in HSV1-TK than in EHV4-TK expressing cells”.
Regarding `Nc1nc2c(ncn2COC(CO)CO)c(=O)[nH]1` [GCV, 9-(1,3-dihydroxy-2-propoxymethyl)guanine], the “fold more sensitive than HCT116 cells” value in data set [9] (HSV1-TK expressing vs parental HCT116) came to 170 fold; in data set [10] (EHV4-TK expressing vs parental HCT116) it was 485 fold. Also, the IC50 in [9] (Homo sapiens, HCT-116, HSV1-TK HCT116, means ± SD for 3 independent experiments) turned out to be 320 ± 80 nM; in data set [10] (Homo sapiens, HCT-116, EHV4-TK HCT116, means ± SD for 3 independent experiments), 110 ± 20 nM; in [1], 200 nM; in data set [2] it was 6000 nM; in data set [11] it was 53400 ± 15000 nM; in data set [12] it was 30000 nM. The IC50 came to 160 nM in data set [3]; 60 nM in [6]; 600 nM in data set [13]; 100 nM in data set [7]; 8000 nM in data set [8]; 550 ± 70 nM in data set [14] (Mus musculus). The IC50 was 1700 ± 500 nM in data set [15], 70000 nM in data set [4] (setting [17]) and 36700 nM in [4] (setting [18]). Moreover, the “IC50 fold lower for EHV4-TK than for HSV1-TK expressing cells” value in [10] (HCT116) was 3 fold. For the same compound, the “Selectivity Index” value came out at 350 in [1]; 12 in [2]; 230 in data set [3]; 612 in [6]; 700 in data set [7]; 9 in [8]. Moreover, in data set [5], the “toxicity / sensitivity in EHV4-TK compared with HSV1-TK expressing cells” value is “approximately twelve fold more sensitive”. In [14] (PANC-O2), the “IC50 fold lower for EHV4-TK than for HSV1-TK expressing cell bulk” value was 3 fold. The “cerebral spinal fluid (CSF) concentrations, fold lower than plasmatic” value in data set [16] is reported as “approximately 3 fold”.
